The values below come from paper PMC9986244, “Connection between MHC class II binding and aggregation propensity: The antigenic peptide 10 of Paracoccidioides brasiliensis as a benchmark study” (Computational and Structural Biotechnology Journal, 2023).

Series [1] in a line: In vitro aggregation, Thioflavin-T (ThT) binding. In kind it is physicochemical. The settings on record: 20 μM peptide in PBS pH 7.4, 37 °C, 18 h; ThT 50 μM, excitation 450 nm, emission 485 nm; in words, Fig. 6. Here is the method: (§1) For in-vitro aggregation assays, P10 and a total of ten selected P10 variants were purchased from Genscript with purity above 95 % and diluted in DMSO (Sigma-Aldrich code D8418) 100 % to a final concentration of 5 mM (stock solution) and kept at −20 °C for storage.
(§2) P10 and its variants stock solutions were diluted in PBS at 20 μM; pH 7.4 at 37 °C for 18 h under agitation. To measure light scattering (LS), samples were excited at 320 nm while emission was collected at 320 nm in the spectrofluorometer Jasco FP8200 (Jasco Corp., Tokyo, Japan). Aliquots of the aggregation suspension were diluted in the presence of Thioflavin-T (Sigma-Aldrich code T3516) (ThT; 50 μM and peptide 20 μM), a specific fluorescent probe for AF. ThT fluorescence emission was measured at 485 nm by exciting the samples at 450 nm. Congo red (Sigma-Aldrich code C6767) binding assays, another amyloid specific probe, were performed according to Palhano [47]. The samples (50 μL) were centrifuged at 17,000 X g for 30 min, and the pellet was incubated with 10 µM Congo red solution for 5 min. The absorbance was measured at 540 and 477 nm and the fraction of bound Congo red was determined by the following formula [mol of bound Congo red/mol of protein = OD540/25,295 – OD477/46,306].

Series [2] in a line: In vitro aggregation, Congo red (CR) binding. In kind it is physicochemical. The settings on record: 20 μM peptide in PBS pH 7.4, 37 °C, 18 h; pellet (17,000 X g, 30 min) with 10 µM Congo red 5 min, absorbance 540 and 477 nm; in words, Fig. 6. Here is the method: as §1, §2
Series [3] is described as follows: Transmission electron microscopy (TEM) of aggregates. Particulars: peptide in PBS, 18 h, 37 °C; negative staining 2 % uranyl acetate; 20 μM (Fig. 7 legend), 100 µM (method). In kind it is physicochemical. Here is the method: […] of each peptide suspension (100 µM) was absorbed onto 200-mesh carbon-coated copper grids (Pelco, Ref: 01800 F) for 5 min and then blotted to remove excess material. Negative staining was performed by adding […] of 2 % (w/v) uranyl acetate. Samples were dried on air for 3 min. The grids were imaged with a Jeol 1200 electron microscope (Jeol Ltd.) operating at a 60 kV acceleration voltage.

For series [4] the following is noted: previously shown; cited from earlier work. From the text:
Since P10 aggregates into AF in vitro, we investigated whether the peptides probed with ProImmune REVEAL® binding assays were able to form amyloid aggregates as well. To address this question, we initially submitted the ten selected sequences of the P10 variants (V1, V3, V5, V6, V7, V10, V11, V14, V15 and V16) to Cordax, an amyloid structure predictor able to model a given structure into steric zippers common to amyloids. For most of these P10 variants, regardless of their SF, at least two types of consensus steric zippers encompassing the sequence ^7(H)TLAIR(Y)^13 were predicted. The exceptio ...

The conditions of series [5]: depends on peptide concentration, pH and temperature; cited from earlier work. From the text:
In addition to peptide binding affinity, other properties to evaluate are their solubility and aggregation propensity. […] Many proteins and peptides in solution can aggregate into amyloid fibrils (AF), a type of aggregate that can accumulate in organs and tissues causing diseases such as Parkinson’s and Alzheimer’s. […] Here, we describe an additional layer of information that could be used to predict good and poor epitope-binders to MHC-II, which is its aggregation propensity. According to the Aggregation hypothesis of antigen selection as enunciated by Forsdyke, [54], homoaggregation of antigen ...

Series [6] has as its system Paracoccidioides brasiliensis. Particulars: immunization, compared with full gp43; cited from earlier work. From the text:
(§3) In addition to peptide binding affinity, other properties to evaluate are their solubility and aggregation propensity. […] Many proteins and peptides in solution can aggregate into amyloid fibrils (AF), a type of aggregate that can accumulate in organs and tissues causing diseases such as Parkinson’s and Alzheimer’s. This is the case of P10 ([…]), ...

The next series deals with MHC-II alleles. Particulars: cited from earlier work.
From the text: as §3

The nature of series [7]: In vitro aggregation, light scattering (LS). It is filed as physicochemical. Particulars: 20 μM peptide in PBS pH 7.4 from 5 mM DMSO stock, 37 °C, 18 h under agitation; excitation and emission 320 nm; in words, Fig. 6. Here is the method:
as §1, §2

“Also recorded” adds a separate entry of the source.

On to QGLKAIHTLAIRYAN [Peptide V10], for which the “Thioflavin T (ThT) binding” value in series [1] is listed as “did not bind ThT”. Further, in series [2], the “Congo red (CR) binding” value is “bind CR”. Moreover, the “Morphology of aggregates by TEM” value in series [3] is on record as “formed mature amyloid fibrils”.
As to QTLIAIHTLAIRYAN [Peptide P10], in series [4], the “Regions able to form steric zippers” value was “^2TLIAIH^7, ^3LIAIHT^8, ^4IAIHTL^9, ^7HTLAIR^12 and ^8TLAIRY^13”. In addition, the Aggregation in solution entry in series [5] is listed as “aggregate into insoluble AF; also recorded: more prominent at neutral pH than at acidic pH”. Further, the “Protection of mice against Pb infection” value in series [6] was “protecting mice against Pb infection as effectively as using the full gp43”. Besides, the “Binding to a set of MHC-II alleles” value in the series with MHC-II alleles was “nanomolar”.
As for QTLLDIHTLAIRYAN [Peptide V1], in series [1], the “Thioflavin T (ThT) binding” value is “behaved like P10”. Besides, the “Congo red (CR) binding” value in series [2] is on record as “behaved like P10”. For the same sequence, the “Morphology of aggregates by TEM” value in series [3] is recorded as “amyloid fibrils were observed”. In addition, the “Light scattering (LS)” value in series [7] was “behaved like P10”.
QTLTAIHTLAIRYAN [Peptide V6]: the “Thioflavin T (ThT) binding” value in series [1] is “did not bind ThT”. Further, in series [2], the “Congo red (CR) binding” value is recorded as “bind CR”. For the same sequence, the “Morphology of aggregates by TEM” value in series [3] was “formed mature amyloid fibrils”.
As to QTYHAIHTLAIRYAN [Peptide V14], the “Morphology of aggregates by TEM” value in series [3] is “ribbon-like appearance”.
